Data on twelve compounds can be found in PubChem BioAssay (NCI).

Each structure is given as a SMILES string.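 Tested at 5 concentrations; 48 h exposure; 96-well plates; endpoints linearly interpolated, else capped at highest concentration. GI50 marks 50% less growth. The concentration for full growth arrest is given as TGI.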

Test systems include BT-549 breast; COLO 205 colon; MOLT-4 leukemia; NCI-H226 lung; NCI-H522 lung; OVCAR-3 ovarian; OVCAR-4 ovarian; SF-268 CNS; SF-295 CNS; SF-539 CNS; SN12C renal; SW-620 colon.
Experiment in all cases: NCI-60 cell line screen, 48 h

As to `Cc1cccc(-c2cc(=O)c3ccc(C)nc3[nH]2)c1`, the TGI with BT-549 breast is over 100 µM; with COLO 205 colon, 4.06 µM; in the test on MOLT-4 leukemia, over 80.6 µM; in the test on NCI-H226 lung, 26.8 µM; in the test on NCI-H522 lung it was 0.75 µM; in the test on OVCAR-3 ovarian, 0.503 µM. The TGI in the test on OVCAR-4 ovarian was over 100 µM; with SF-268 CNS, over 100 µM; with SF-295 CNS, 14.9 µM; in the test with SF-539 CNS, 14.6 µM; in the test on SN12C renal it was over 100 µM.
For `OCCSCCCSCCO`, the TGI in the test on BT-549 breast, with COLO 205 colon, in the test with MOLT-4 leukemia, in the test with NCI-H522 lung, in the test with OVCAR-3 ovarian and in the test with OVCAR-4 ovarian was over 100 µM each time. Besides, the TGI in the test on SF-268 CNS, in the test on SF-295 CNS, in the test with SF-539 CNS, in the test on SN12C renal and with SW-620 colon was over 100 µM throughout.
In the case of `CC(C)CCCC(C)[C@H]1CC[C@H]2[C@@H]3CC[C@H]4C[C@@H](CCC=C(c5cc(Cl)c(O)c(C(=O)OC(C)(C)C)c5)c5cc(Cl)c(O)c(C(=O)OC(C)(C)C)c5)CC[C@]4(C)[C@H]3CC[C@]12C` (stereo partly drawn), the TGI in the test on BT-549 breast, with COLO 205 colon, with MOLT-4 leukemia, in the test with OVCAR-3 ovarian, in the test on OVCAR-4 ovarian and in the test with SF-268 CNS was over 50 µM throughout. In addition, the TGI with SF-295 CNS, in the test with SF-539 CNS, in the test with SN12C renal and in the test on SW-620 colon was over 50 µM in each case.
Take `NC(=O)c1n[nH]n(-c2ccccc2)c1=O`: the TGI in the test on BT-549 breast, in the test with COLO 205 colon, in the test with MOLT-4 leukemia, in the test with NCI-H226 lung, in the test with NCI-H522 lung and in the test with OVCAR-3 ovarian was over 100 µM each time. The TGI in the test on SF-268 CNS, in the test on SF-295 CNS, with SF-539 CNS, in the test with SN12C renal and in the test with SW-620 colon was over 100 µM throughout.
Turning to `O=C(O)c1c(CC(Cc2ccc3c(c2)CCCC3)C(=O)O)ccc2c1CCCC2` (stereo not drawn), the TGI in the test with BT-549 breast, in the test with COLO 205 colon, in the test on MOLT-4 leukemia, with NCI-H226 lung, with NCI-H522 lung and in the test with OVCAR-3 ovarian was over 100 µM each time. Besides, the TGI with SF-268 CNS, with SF-295 CNS, in the test on SF-539 CNS, in the test on SN12C renal and with SW-620 colon was over 100 µM in each case.
As to `Cc1cc2c(cc1O)CC[C@@H]1[C@@H]2CC[C@]2(C)[C@@H](O)CC[C@@H]12`, the TGI is 20.1 µM in the test on BT-549 breast; 32.5 µM in the test on COLO 205 colon; 17.7 µM with MOLT-4 leukemia; 23.4 µM with NCI-H522 lung; 22.1 µM with OVCAR-3 ovarian; 29.2 µM in the test on OVCAR-4 ovarian. In addition, the TGI stood at 46.8 µM in the test on SF-268 CNS; 20.3 µM with SF-295 CNS; 19.8 µM in the test with SF-539 CNS; 31.2 µM in the test with SN12C renal; 37.5 µM in the test with SW-620 colon. Further, the results for the GI50 with OVCAR-3 ovarian and in the test with SF-539 CNS were 9.14 µM and 7.46 µM, respectively.
Regarding `CCN1/C(=C/c2ccc3ccccc3[n+]2CC)C=Cc2ccccc21`, the TGI with BT-549 breast is 24 µM; in the test with MOLT-4 leukemia it was over 33.9 µM; in the test with NCI-H226 lung it was 9.71 µM; in the test on NCI-H522 lung, 4.64 µM; with OVCAR-3 ovarian it was 13.1 µM; in the test on OVCAR-4 ovarian, 19.8 µM. The TGI stood at 16.5 µM in the test with SF-268 CNS; 10.5 µM with SF-295 CNS; 13.7 µM in the test on SF-539 CNS; 12.8 µM with SN12C renal; 14.5 µM in the test with SW-620 colon.
As to `OCCCSc1ccccc1SCCCO`, the TGI with BT-549 breast, with COLO 205 colon, in the test on MOLT-4 leukemia, with NCI-H522 lung, with OVCAR-3 ovarian and with OVCAR-4 ovarian was over 100 µM each time. For the same compound, the TGI with SF-268 CNS, in the test on SF-295 CNS, with SF-539 CNS, with SN12C renal and in the test on SW-620 colon was over 100 µM each time.
As for `O=C1CN(c2ccc(Cl)cc2)C(=O)CN1CCN1CC(=O)N(c2ccc(Cl)cc2)CC1=O`, the TGI in the test on BT-549 breast, in the test with COLO 205 colon, with MOLT-4 leukemia, in the test on NCI-H522 lung, in the test on OVCAR-3 ovarian and in the test on OVCAR-4 ovarian was over 100 µM throughout. Also, the TGI with SF-268 CNS, with SF-295 CNS, in the test on SN12C renal and in the test with SW-620 colon was over 100 µM each time.
In the case of `OC1C(O)C(O)C(O)C(O)C1O` (stereo not drawn), the TGI in the test with BT-549 breast was over 1000 µM; with COLO 205 colon it was over 1000 µM; in the test on MOLT-4 leukemia it was 916 µM; in the test on NCI-H226 lung it was over 1000 µM; in the test with OVCAR-3 ovarian, over 1000 µM; in the test with OVCAR-4 ovarian it was over 1000 µM. In addition, the TGI in the test with SF-268 CNS, in the test on SF-539 CNS, in the test with SN12C renal and in the test with SW-620 colon was over 1000 µM in each case.
Consider `CC1(C)OCC2OC3([C@H](O)CCO)OC(C)(C)OC3C2O1` (stereo partly drawn), for which the TGI in the test on BT-549 breast, in the test with COLO 205 colon, with MOLT-4 leukemia, with NCI-H226 lung, in the test on OVCAR-3 ovarian and in the test with OVCAR-4 ovarian was over 100 µM each time. In addition, the TGI with SF-295 CNS, in the test with SF-539 CNS, in the test with SN12C renal and with SW-620 colon was over 100 µM in each case.
For the compound `CCCCCCOc1ccc(NC2=C(Cl)C(=O)c3cccnc3C2=O)cc1`, the TGI in the test with BT-549 breast is over 10 µM; in the test with MOLT-4 leukemia it was over 10 µM; in the test on NCI-H226 lung it was 3.58 µM; in the test on OVCAR-3 ovarian, 2.85 µM; with SF-268 CNS it was 5.31 µM; in the test with SF-295 CNS it was over 10 µM. For the same compound, the TGI in the test with SF-539 CNS amounted to 4.19 µM; in the test with SN12C renal, 4.08 µM; in the test on SW-620 colon, 3.88 µM.
